Reference: patent US20120077704A1, “METHOD FOR SCREENING COMPOUNDS FOR THE TREATMENT OR PREVENTION OF COLON CANCER” (priority 2009, published 2012)

Key:
Caco-2 cells [1] = assay: MetaCore pathway analysis of differentially expressed genes; type: cell-based, human; details: for Number of pathways: significant pathways p<0.01, 20 uM H2O2 or 100 uM menadione
Excerpt: The p-Values were all calculated using the basic formula for hypergeometric distribution. The p-Value essentially represents the probability for a particular mapping of an experiment to a pathway to arise by chance, considering the numbers of genes in experiment versus the number of genes in the pathway within the “full set” of all genes in the pathway.

Caco-2 cells [2] = details: 75 μM H2O2, 30 minutes incubation time; cited from earlier work
Caco-2 cells [3] = assay: 8-oxodG analysis (oxidative DNA damage, HPLC-ECD); type: cell-based, human
Description: The Caco-2 human colorectal adenocarcinoma cell line (American Type Culture Collection, Manassas, Va., USA) was grown in Dulbecco's Modified Eagle's Medium supplemented with 10% fetal bovine serum, 1% non-essential amino acids, 1% sodium pyruvate and 1% penicillin/streptomycin, at 37° C., and 5% CO2. Cells were grown until 80% confluency before medium was replaced by DMEM without supplements containing 100 μM menadione or 20 μM H202. For microarray analyses, time-matched control cells were treated in an identical manner without addition of the oxidants. Samples were taken after 0.08, 0.25, 0.5, 1, 2, 4, 8, 16, or 24 hours. […] At the indicated time points, cells were fixed in 2 ml ice cold methanol for flow cytometry or medium was replaced by 1 ml Trizol for RNA/DNA isolation. […] Briefly, after extraction, DNA was digested into deoxyribonucleosides by treatment with nuclease P1 [0.02 U/μl] and alkaline phosphatase [0.014 U/μl]. The digest was then injected into a HPLC-ECD-system. […] UV-absorption of dG was simultaneously monitored at 260 nm. Data are presented as means ±SD.

Caco-2 cells [4] = assay: STEM time series analysis of gene expression; type: cell-based, human; details: for genes whose time-dependent expression correlates with 8-oxodG levels / genes significantly assigned to clusters of gene expression curves / number of different clusters of gene expression curves: STEM; for genes whose time-dependent expression correlates with 8-oxodG levels: log ratio transformed 8-oxodG levels; for genes significantly assigned to clusters of gene expression curves / number of different clusters of gene expression curves: 20 uM H2O2 or 100 uM menadione
Excerpt: For identification of genes co-regulated time-dependently and clustering with the phenotypic parameters, the software tool “Short Time-series Expression Miner” (STEM, version 1.1.2b; http://www.cs.cmu.edu/˜jernst/stem/) was used. […] Profiles are clustered by correlation analyses.

Caco-2 cells [5] = assay: Flow cytometric analysis of cell cycle distribution; type: cell-based, human; details: for percentage of cells in the S phase: 20 uM H2O2 or 100 uM menadione
Description: (§1) The Caco-2 human colorectal adenocarcinoma cell line (American Type Culture Collection, Manassas, Va., USA) was grown in Dulbecco's Modified Eagle's Medium supplemented with 10% fetal bovine serum, 1% non-essential amino acids, 1% sodium pyruvate and 1% penicillin/streptomycin, at 37° C., and 5% CO2. Cells were grown until 80% confluency before medium was replaced by DMEM without supplements containing 100 μM menadione or 20 μM H202. For microarray analyses, time-matched control cells were treated in an identical manner without addition of the oxidants. Samples were taken after 0.08, 0.25, 0.5, 1, 2, 4, 8, 16, or 24 hours. […] At the indicated time points, cells were fixed in 2 ml ice cold methanol for flow cytometry or medium was replaced by 1 ml Trizol for RNA/DNA isolation. Analyses of cell cycle profiles and apoptosis was performed as previously described. Cells were stained with propidium iodide; apoptotic cells were visualised by means of the primary antibody M30 CytoDeath (Roche, Penzberg, Germany) and FITC conjugated anti-mouse Ig as secondary antibody (DakoCytomation, Glostrup, Denmark). Data analysis was done using CellQuest software (version 3.1, Becton Dickinson, San Jose, USA). […] Cell cycle profiles were analyzed using ModFit LT for Mac (version 2.0). Data are presented as means ±SD.

Caco-2 cells [6] = assay: Microarray gene expression, differentially expressed genes; type: cell-based, human; details: for number of differentially expressed genes: 20 uM H2O2 or 100 uM menadione, all time points up to 24 hours
Description: The Caco-2 human colorectal adenocarcinoma cell line (American Type Culture Collection, Manassas, Va., USA) was grown in Dulbecco's Modified Eagle's Medium supplemented with 10% fetal bovine serum, 1% non-essential amino acids, 1% sodium pyruvate and 1% penicillin/streptomycin, at 37° C., and 5% CO2. Cells were grown until 80% confluency before medium was replaced by DMEM without supplements containing 100 μM menadione or 20 μM H202. For microarray analyses, time-matched control cells were treated in an identical manner without addition of the oxidants. […] At the indicated time points, cells were fixed in 2 ml ice cold methanol for flow cytometry or medium was replaced by 1 ml Trizol for RNA/DNA isolation. Labelling and hybridisation of RNA samples were done according to Agilent's manual for microarrays with minor modifications ((Agilent Technologies, Breda, The Netherlands). RNA (0.5 μg) was transcribed into cDNA and labelled with Cyanine 3 (Cy3) or Cyanine 5 (Cy5). When dye-incorporation was above 7 pmol/μg RNA, 2 μg cRNA of the treated and time-matched control samples was applied on […] 22K and […] 4×44K Agilent Human Oligo Microarray. Slides were scanned on a GenePix 4000B (Molecular Devices, Sunnyvale, USA) with fixed laser power (100%) and PMT gain. For each exposure, two biological repeats per time point were performed. Also swapped Cy3 and Cy5 dye labelling was done, resulting in 72 hybridisations. Images were processed with ImaGene 6.0 software (BioDiscovery Inc., Los Angeles, USA) to quantify spot signals. Irregular spots were flagged. Data from ImaGene were transported into GeneSight software version 4.1.6 (BioDiscovery Inc., Los Angeles, USA). For each spot background was subtracted and flagged spots as well as spots with a net expression level below 20 in both channels were omitted. Data were log base 2 transformed and LOWESS normalization was applied. Expression difference with the time-matched control was calculated and if more than one probe of a gene was present on the array, the replicates were combined while omitting outliers (>2 standard deviations). Only the probe sets present at both types of array platforms were selected. […] The webtool GenePattern (http://genepattern.broad.mit.edu/gp/pages/index.jsf) was used for clustering and visualization of heat maps and cluster patterns.

Caco-2 cells [7] = assay: ESR spectroscopy of cellular radical formation (DMPO spin trap); type: cell-based, human
[8] = system: steroid 5-alpha reductase; details: inhibition of steroid 5-alpha reductase; cited from earlier work
rat hepatocytes = details: up to 2 hours after incubation; cited from earlier work
Caco-2 cells [9] = assay: Flow cytometric analysis of apoptosis (M30 CytoDeath); type: cell-based, human; details: 20 uM H2O2 or 100 uM menadione
Description: as §1

Compound | Number of pathways (Caco-2 cells [1]; time 0.08 hrs) | Number of pathways (Caco-2 cells [1]; time 0.25 hrs) | Number of pathways (Caco-2 cells [1]; time 0.5 hrs) | Number of pathways (Caco-2 cells [1]; time 1 hrs) | Number of pathways (Caco-2 cells [1]; time 2 hrs) | Number of pathways (Caco-2 cells [1]; time 4 hrs) | Number of pathways (Caco-2 cells [1]; time 8 hrs) | Number of pathways (Caco-2 cells [1]; time 16 hrs) | Number of pathways (Caco-2 cells [1]; time 24 hrs) | genes whose time-dependent expression correlates with 8-oxodG levels (Caco-2 cells [4]) [genes] | genes significantly assigned to clusters of gene expression curves (Caco-2 cells [4]) [genes] | number of different clusters of gene expression curves (Caco-2 cells [4]) [clusters] | genes clustered by STEM with cell cycle phase (Caco-2 cells [4]; cell cycle phase G1) | significant pathways of genes clustered with cell cycle phase (Caco-2 cells [4]; cell cycle phase G1, p<0.01) | genes clustered by STEM with cell cycle phase (Caco-2 cells [4]; cell cycle phase G2/M) | significant pathways of genes clustered with cell cycle phase (Caco-2 cells [4]; cell cycle phase G2/M, p<0.01) | genes clustered by STEM with cell cycle phase (Caco-2 cells [4]; cell cycle phase S) | significant pathways of genes clustered with cell cycle phase (Caco-2 cells [4]; cell cycle phase S, p<0.01) | percentage of cells in the S phase (Caco-2 cells [5]; 24 h) | number of differentially expressed genes (Caco-2 cells [6]) [genes] | further results
OO [H2O2, hydrogen peroxide] | 8 | 15 | 17 | 6 | 4 | 5 | 8 | 5 | 6 | 8 | 998 | 6 | 29 | 0 | 45 | 1 | 1 | 0 | significantly decreased | 1404 | induction of the WNT signalling pathway (Caco-2 cells [1]; H2O2 exposure): immediately; affected genes selected out of 12931 genes (Caco-2 cells [2]): 87 genes; 8-oxodG level at 16 hours after exposure (Caco-2 cells [3]; 20 uM H2O2, 16 hours): significantly elevated; time of significantly increased peak in 8-oxodG (Caco-2 cells [3]; 20 uM H2O2, compared to control cells): 15 min; Number of pathways of the gene expression cluster profile (Caco-2 cells [4]; H2O2, STEM cluster 0, p<0.01): 4; Number of pathways of the gene expression cluster profile (Caco-2 cells [4]; H2O2, STEM cluster 1, p<0.01): 1; Number of pathways of the gene expression cluster profile (Caco-2 cells [4]; H2O2, STEM cluster 2, p<0.01): 9; Number of pathways of the gene expression cluster profile (Caco-2 cells [4]; H2O2, STEM cluster 3, p<0.01): 1; Number of pathways of the gene expression cluster profile (Caco-2 cells [4]; H2O2, STEM cluster 4, p<0.01): 3; Number of pathways of the gene expression cluster profile (Caco-2 cells [4]; H2O2, STEM cluster 5, p<0.01): 4; number of cells in G1 phase (Caco-2 cells [5]; 16 h after exposure, compared to control cells): significantly decreased; percentage of cells in the G1/M phase (Caco-2 cells [5]; 24 h, 20 uM H2O2): significantly increased; recovery of the gene expression response (Caco-2 cells [6]; pulse-like response towards H2O2): ≤ 1 h; cellular HO. formation (DMPO.-OH) (Caco-2 cells [7]; increasing concentrations of H2O2): dose-dependent formation of DMPO.-OH
CC(C)(C)NC(=O)[C@H]1CC[C@H]2[C@@H]3CC[C@H]4NC(=O)C=C[C@]4(C)[C@H]3CC[C@]12C [finasteride] | – | – | – | – | – | – | – | – | – | – | – | – | – | – | – | – | – | – | – | – | effect on cellular H2O2 production [8]: enhancement of cellular H2O2 production
CC1=CC(=O)c2ccccc2C1=O [menadione] | 18 | 16 | 14 | 15 | 8 | 10 | 14 | 19 | 18 | 3 | 680 | 4 | 311 | 15 | 1 | 0 | 74 | 4 | significant increase | 979 | time after which the WNT signalling pathway is induced (Caco-2 cells [1]; menadione exposure): 1 h; number of pathways significantly induced exclusively by the oxidant (Caco-2 cells [1]; p < 0.01): 24; 8-oxodG formation (rat hepatocytes): absence of 8-oxodG formation; time of highest significantly increased level of 8-oxodG (Caco-2 cells [3]; 100 uM menadione): 2 h; 8-oxodG level at 15 minutes (Caco-2 cells [3]; 100 uM menadione, 15 minutes, much lower than H2O2 at 15 minutes): significant increased level; Number of pathways of the gene expression cluster profile (Caco-2 cells [4]; menadione, STEM cluster 0, p<0.01): 12; Number of pathways of the gene expression cluster profile (Caco-2 cells [4]; menadione, STEM cluster 1, p<0.01): 18; Number of pathways of the gene expression cluster profile (Caco-2 cells [4]; menadione, STEM cluster 2, p<0.01): 4; Number of pathways of the gene expression cluster profile (Caco-2 cells [4]; menadione, STEM cluster 3, p<0.01): 8; cells of the G1 phase (Caco-2 cells [5]; 24 h, 100 uM menadione): significant decrease; recovery of the gene expression response (Caco-2 cells [6]; up to 24 hours): no recovery; induction of apoptosis (Caco-2 cells [9]): absence of apoptosis; O2.-derived DMPO.-OH signal (Caco-2 cells [7]; 100 uM, 45 minutes incubation time): showed an O2.-derived DMPO.-OH signal
